Assay results reported in PubChem BioAssay AID1918953 (Molecular Pharmacology Branch, DTP, NCI, 2023).

System: MDA-MB-231 complex spheroid viability
Experiment: Anticancer human tumor MDA-MB-231/ATCC cell line growth inhibition;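 also: drug exposure lasted 7 days starting on day 3 of spheroid growth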
Conditions: for IC50: curve of first compound; for viability, T/C: stronger effect = lower value
Method in brief: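 Drug combinations with the LSD1 inhibitor iadademstat tested on tumor cells co-cultured as spheroids with endothelial cells and mesenchymal stem cells. Concentrations descended in half-log increments from clinical Cmax or 10 microM.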

[1] = second compound 0.1 µM, first compound 0.00949 µM
[2] = second compound 0.1 µM, first compound 0.03 µM
[3] = second compound 0.1 µM, first compound 0.0949 µM
[4] = second compound 0.1 µM, first compound 0.3 µM
[5] = second compound 0.1 µM, first compound 0.949 µM
[6] = second compound 0.1 µM, first compound 3 µM
[7] = second compound 0.316 µM, first compound 0.00949 µM
[8] = second compound 0.316 µM, first compound 0.03 µM
[9] = second compound 0.316 µM, first compound 0.0949 µM
[10] = second compound 0.316 µM, first compound 0.3 µM
[11] = second compound 0.316 µM, first compound 0.949 µM
[12] = second compound 0.316 µM, first compound 3 µM
[13] = second compound 1 µM, first compound 0.00949 µM
[14] = second compound 1 µM, first compound 0.03 µM
[15] = second compound 1 µM, first compound 0.0949 µM
[16] = second compound 1 µM, first compound 0.3 µM
[17] = second compound 1 µM, first compound 0.949 µM
[18] = second compound 1 µM, first compound 3 µM
[19] = second compound 3.16 µM, first compound 0.00949 µM
[20] = second compound 3.16 µM, first compound 0.03 µM
[21] = second compound 3.16 µM, first compound 0.0949 µM
[22] = second compound 3.16 µM, first compound 0.3 µM
[23] = second compound 3.16 µM, first compound 0.949 µM
[24] = second compound 3.16 µM, first compound 3 µM
[25] = second compound 10 µM, first compound 0.00949 µM
[26] = second compound 10 µM, first compound 0.03 µM
[27] = second compound 10 µM, first compound 0.0949 µM
[28] = second compound 10 µM, first compound 0.3 µM
[29] = second compound 10 µM, first compound 0.949 µM
[30] = second compound 10 µM, first compound 3 µM

Compound	IC50 (second compound 0.1 µM) [nM]	IC50 (second compound 0.316 µM) [nM]	IC50 (second compound 1 µM) [nM]	IC50 (second compound 3.16 µM) [nM]	IC50 (second compound 10 µM) [nM]	viability, T/C [1] [%]	viability, T/C [2] [%]	viability, T/C [3] [%]	viability, T/C [4] [%]	viability, T/C [5] [%]	viability, T/C [6] [%]	viability, T/C [7] [%]	viability, T/C [8] [%]	viability, T/C [9] [%]	viability, T/C [10] [%]	viability, T/C [11] [%]	viability, T/C [12] [%]	viability, T/C [13] [%]	viability, T/C [14] [%]	viability, T/C [15] [%]	further results
NS(=O)(=O)OCC1CC(n2ccc3c(NC4CCc5ccccc54)ncnc32)CC1O (stereo not given) + NC1CC1c1ccc(-c2cccc(O)c2)cc1	82.3	75.3	82	70.6	36.4	128	94.3	44.1	28.6	28.8	27.9	118	93.5	39.1	27.2	23.9	27.8	114	90.1	44.2	viability, T/C [16]: 29.3%; viability, T/C [17]: 25.6%; viability, T/C [18]: 28.4%; viability, T/C [19]: 116%; viability, T/C [20]: 78.9%; viability, T/C [21]: 40.8%; viability, T/C [22]: 27%; viability, T/C [23]: 30.4%; viability, T/C [24]: 28.3%; viability, T/C [25]: 68.6%; viability, T/C [26]: 53.4%; viability, T/C [27]: 34.8%; viability, T/C [28]: 27%; viability, T/C [29]: 26.3%; viability, T/C [30]: 20.2%
Nc1ccccc1NC(=O)c1ccc(CNC(=O)OCc2cccnc2)cc1 + NC1CC1c1ccc(-c2cccc(O)c2)cc1	13.3	10.5	< 9.49	< 9.49	< 9.49	56.6	34.9	22.7	12.2	2.07	0.17	52.7	31.5	21	10.6	1.85	0.16	43.3	27	21.7	viability, T/C [16]: 9.99%; viability, T/C [17]: 1.67%; viability, T/C [18]: 0.15%; viability, T/C [19]: 46.3%; viability, T/C [20]: 31.6%; viability, T/C [21]: 21.3%; viability, T/C [22]: 13.3%; viability, T/C [23]: 1.34%; viability, T/C [24]: 0.13%; viability, T/C [25]: 36.3%; viability, T/C [26]: 22.1%; viability, T/C [27]: 12%; viability, T/C [28]: 7.05%; viability, T/C [29]: 0.48%; viability, T/C [30]: 0.24%
O=C(C=Cc1cccc(S(=O)(=O)Nc2ccccc2)c1)NO + NC1CC1c1ccc(-c2cccc(O)c2)cc1	20.3	13.2	11.4	< 9.49	< 9.49	61.6	44	31.3	19.1	1.09	74.2	55.9	35.5	24.9	17.7	0.33	56.4	52.5	37.2	20.9	viability, T/C [16]: 19.7%; viability, T/C [17]: 0.58%; viability, T/C [18]: 56.9%; viability, T/C [19]: 47.9%; viability, T/C [20]: 31.1%; viability, T/C [21]: 18.4%; viability, T/C [22]: 15.8%; viability, T/C [23]: 0.63%; viability, T/C [24]: 58.4%; viability, T/C [25]: 31.4%; viability, T/C [26]: 18.4%; viability, T/C [27]: 12.8%; viability, T/C [28]: 5.16%; viability, T/C [29]: 0.34%; viability, T/C [30]: 37.3%
